Key:
VPS4B = target: T1, VPS4B (Homo sapiens, UniProt O75351); experiment: VPS4B ATPase activity, EnzChek Phosphate assay; assay type: biochemical; parameters: His tag (pET28a vector-encoded) (N); made in house; host or cells: Escherichia coli BL21(DE3)
T1 sequence (O75351 1-444): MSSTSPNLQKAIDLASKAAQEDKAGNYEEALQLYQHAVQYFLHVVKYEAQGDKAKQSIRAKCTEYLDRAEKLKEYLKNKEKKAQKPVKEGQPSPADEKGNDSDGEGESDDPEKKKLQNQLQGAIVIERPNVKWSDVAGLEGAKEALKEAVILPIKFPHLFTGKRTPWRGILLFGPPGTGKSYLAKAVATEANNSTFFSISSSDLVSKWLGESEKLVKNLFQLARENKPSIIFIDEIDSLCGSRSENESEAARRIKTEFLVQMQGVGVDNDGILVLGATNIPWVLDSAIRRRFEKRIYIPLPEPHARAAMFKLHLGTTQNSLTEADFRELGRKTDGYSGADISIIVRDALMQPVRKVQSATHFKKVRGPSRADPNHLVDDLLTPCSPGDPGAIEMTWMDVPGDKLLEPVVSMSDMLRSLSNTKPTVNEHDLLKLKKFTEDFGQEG
Description: VPS4B and VCP ATPase activities were measured using the EnzChek Phosphate assay for the quantification of released phosphate. Assay buffers were based on literature precedents ([Cupido et al, 2019], [2021]) as follows: VPS4B buffer (20 mM HEPES-KOH, pH 7.4, 25 mM KOAc, 2 mM MgCl2, 5 mM (NH4)2SO4, 0.5 mM CaCl2, 2.5 mM DTT, 0.1 mg/mL BSA, 0.005% v/v Triton X-100), VCP buffer (20 mM HEPES-NaOH, pH 7.4, 20 mM NaCl, 10 mM MgCl2, 5 mM (NH4)2SO4, 0.5 mM CaCl2, 2.5 mM DTT, 0.1 mg/mL BSA, 0.005% v/v Triton X-100). In black clear-bottom 384-well plates, 22.5 μL of 5% DMSO or 40× test compounds diluted in the respective assay buffer was added to each well. ATPases were diluted to 1 μM in the respective buffers containing 2× EnzChek Phosphate assay coupling reagents of 400 μM MESG and 2 U of PNP, then 25 μL was added to each well. Plates were mixed at 1000 rpm for 30 minutes at RT while being protected from light. The reaction was initiated by adding 2.5 μL of 20 mM MgATP or water followed by mixing at 1200 rpm for 30 seconds at RT. Plates were measured at 360 nm using a CLARIOstar plate reader (BMG LABTECH) for 20 minutes at 37 °C. ATPase activity was calculated as the amount of phosphate released over a 5-minute interval under linear initial velocity conditions. The remaining ATPase activity was calculated by normalizing compound-treated activity values to the DMSO control. IC50 was calculated by fitting normalized values to a sigmoidal dose-response curve with Hill slope = −1 using Graph Pad Prism 10.0.
To identify VPS4i, we developed enzyme- and cell-based VPS4 functional assays to serve as VPS4i-screening platforms. For the enzyme-based assay, we used the colorimetric EnzChek Phosphate assay that detects free phosphate with the advantage of continuous measurement of ATP hydrolysis over time. […] Due to the high sequence and structural similarity of AAA-ATPases, we also established a VCP ATPase assay to evaluate hit selectivity. […] For the cell-based assay, our approach was based on how VPS4 inhibition causes the accumulation of ESCRT-III ([Babst et al, 1998]; [Katoh et al, 2003]). We used an N-terminal GFP-tagged CHMP4B reporter system because it is the most abundant ESCRT-III subunit ([Katoh et al, 2004]; [Teis et al, 2008]). Our aim was to test compounds under short-term serum and amino acid starvation to stimulate ESCRT activity for easier detection of inhibitors ([Takahashi et al, 2018], [2019]). […] Overall, we established 2 systems for VPS4i screening, a VPS4B ATPase activity assay and a GFP-CHMP4B accumulation cell-based assay.

[1] = tested on: GFP-CHMP4B-expressing U2OS cells; experiment: GFP-CHMP4B accumulation cell-based assay (high-content microscopy)
Description: Plates were then scanned using the 20× objective for 1 hour with ≥100 cells/well across 6 fields/well. […] For all other assays, the cells were cultured overnight in black glass-bottom 96-well plates (Cellvis; P96-1.5H-N) then stained, rinsed, and treated with SM containing the indicated compounds (0.1% DMSO or 0.1% DMSO/0.1% ethanol [vehicle] final). Plates were scanned using the 20× NA .70 objective at the indicated intervals with ≥ 300 cells/well across 3 fields/well. […]

[2] = screened at 5 µM, mean ± S.D., Supplemental Table 2
[3] = screened at 1 µM, mean ± S.D., Supplemental Table 2
[4] = remaining ATPase activity, screened at 5 μM, mean ± SD, Table 1
[5] = screened at 1 μM, starvation media, 1 hour, foci intensity per cell normalized to 4-107, mean ± SD, Table 1

| VPS4B ATPase (% DMSO) (VPS4B; [2]) | SMILES | GFP-CHMP4B (% 4-107) [1, 3] | other results |
| --- | --- | --- | --- |
| 40.44 ± 0.01 % DMSO | COc1cccc2c(NCCc3ccccc3)nc(N[C@H](C)c3ccccc3)nc12 [Compound 5-91] | 1.69 ± 0.12 % 4-107 | – |
| 72.71 ± 0.81 % DMSO | COc1ncnc2c1ccn2-c1nc(NCCc2ccccc2)c2cccc(OC)c2n1 [Compound 5-53] | 1.68 ± 0.33 % 4-107 | – |
| 58.00 ± 2.01 % DMSO | COc1cccc2c(NCc3ccccc3)nc(N[C@@H](C)c3ccc4ccccc4c3)nc12 [Compound 5-93] | 5.34 ± 4.29 % 4-107 | – |
| 96.09 ± 2.11 % DMSO | COc1cccc2c(NCc3ccccc3)nc(-n3ccc4c(C(=O)O)cccc43)nc12 [Compound 5-137] | 2.21 ± 0.41 % 4-107 | – |
| 63.24 ± 0.19 % DMSO | COc1cccc2c(NCc3ccccc3)nc(Nc3cccc4cc5ccccc5cc34)nc12 [Compound 5-129] | 1.25 ± 0.86 % 4-107 | – |
| 42.92 ± 3.93 % DMSO | COc1cccc2c(NCCc3ccccc3)nc(N[C@@H](C)c3ccccc3)nc12 [Compound 5-83] | 1.83 ± 1.02 % 4-107 | – |
| 89.36 ± 2.84 % DMSO | COc1ncnc2c1ccn2-c1nc(NCCc2cccnc2)c2cccc(OC)c2n1 [Compound 5-65] | 1.69 ± 0.46 % 4-107 | – |
| 43.91 ± 0.05 % DMSO | COc1cccc2c(NCc3ccccc3)nc(N[C@@H](C)c3ccccc3)nc12 [Compound 5-81] | 7.65 ± 7.10 % 4-107 | – |
| 49.27 ± 0.19 % DMSO | COc1cccc2c(NCc3ccccc3)nc(N[C@@H](C)c3cccc4ccccc34)nc12 [Compound 5-101] | 2.43 ± 1.02 % 4-107 | – |
| 90.05 ± 5.58 % DMSO | COc1cccc2c(NCc3ccccc3)nc(-n3ccc4c(C(N)=O)cccc43)nc12 [Compound 5-139] | 1.75 ± 0.11 % 4-107 | – |
| 46.29 ± 0.61 % DMSO | COc1cccc2c(NCc3ccccc3)nc(NCc3cccc(OC(F)(F)F)c3)nc12 [Compound 7-11] | 22.15 ± 1.19 % 4-107 | – |
| 97.54 ± 1.15 % DMSO | COc1cccc2c(NCCc3ccccc3)nc(-n3ccc4cncnc43)nc12 [Compound 5-59] | 2.84 ± 0.06 % 4-107 | – |
| 90.35 ± 0.07 % DMSO | COc1cccc2c(NCCc3cccnc3)nc(-n3ccc4cncnc43)nc12 [Compound 5-63] | 5.28 ± 0.27 % 4-107 | – |
| 45.53 ± 1.40 % DMSO | COc1cccc2c(NCc3ccccc3)nc(NCCc3ccccc3)nc12 [Compound 5-75] | 2.25 ± 1.07 % 4-107 | – |
| 76.35 ± 3.47 % DMSO | COc1cccc2c(NCc3ccccc3)nc(Nc3ccc4ccccc4c3)nc12.Cl [Compound 5-79] | 3.40 ± 0.70 % 4-107 | – |

Further lines, the compound ahead of its results:

| SMILES | VPS4B ATPase (% DMSO) (VPS4B; [2]) | GFP-CHMP4B (% 4-107) [1, 3] | other results |
| --- | --- | --- | --- |
| COc1cccc2c(NCc3ccccc3)nc(NCc3ccccc3)nc12 [Compound 4] | – | – | VPS4B ATPase (% DMSO) (VPS4B; [4]): 75.23 ± 0.63 % DMSO; VPS4B ATPase (% DMSO) (VPS4B; screened at 5 µM, mean ± S.D., Supplemental Table 2, listed as 5-133): 75.23 ± 0.63 % DMSO; GFP-CHMP4B (% 4-107) ([1]; screened at 1 µM, mean ± S.D., Supplemental Table 2, listed as 5-133): 2.92 ± 2.81 % 4-107; GFP-CHMP4B (% 4-107) [1, 5]: 2.92 ± 2.81 % 4-107 |
| COC(=O)c1cccc(CNc2nc(NCc3cccc(C(=O)OC)c3)c3cccc(OC)c3n2)c1 [Compound 4-131-iii] | 34.70 ± 0.70 % DMSO | 11.94 ± 9.74 % 4-107 | – |
| COC(=O)c1ccc2ccn(-c3nc(NCCc4ccc(S(N)(=O)=O)cc4)c4cccc(OC)c4n3)c2c1 [Compound 5-43-iii] | 94.98 ± 0.53 % DMSO | 3.01 ± 1.98 % 4-107 | – |
| COc1cccc2c(NCc3cccc(C(=O)O)c3)nc(NCc3cccc(C(=O)O)c3)nc12 [Compound 4-131-iv] | 105.12 ± 0.39 % DMSO | 1.10 ± 0.68 % 4-107 | – |
| COc1cccc2c(NCc3ccccc3)nc(NCc3cccc(C(=O)O)c3)nc12 [Compound 5-35-iv] | 88.20 ± 5.24 % DMSO | 10.92 ± 9.21 % 4-107 | – |
| COc1cccc2c(NCc3ccccc3)nc(-c3cccc4ccccc34)nc12 [Compound 10] | 49.12 ± 2.89 % DMSO | 3.97 ± 0.16 % 4-107 | VPS4B ATPase (% DMSO) (VPS4B; [4]): 49.12 ± 2.89 % DMSO; GFP-CHMP4B (% 4-107) [1, 5]: 3.97 ± 0.16 % 4-107 |
| COC(=O)c1ccc2c(ccn2-c2nc(NCc3ccccc3)c3cccc(OC)c3n2)c1 [Compound 5-41-iii] | 80.70 ± 2.02 % DMSO | 2.82 ± 1.33 % 4-107 | – |
| COc1cccc2c(NCCc3cccc(S(N)(=O)=O)c3)nc(NCCc3ccc(S(N)(=O)=O)cc3)nc12 [Compound 5-15-iv] | 77.37 ± 4.37 % DMSO | 3.22 ± 0.67 % 4-107 | – |
| COC(=O)c1ccc2ccn(-c3nc(NCc4ccccc4)c4cccc(OC)c4n3)c2c1 [Compound 8] | 82.10 ± 2.19 % DMSO | 1.38 ± 0.73 % 4-107 | VPS4B ATPase (% DMSO) (VPS4B; [4]): 82.10 ± 2.19 % DMSO; GFP-CHMP4B (% 4-107) [1, 5]: 1.38 ± 0.73 % 4-107 |
| COc1cccc2c(NCc3ccccc3)nc(-n3ccc4cc(C(=O)O)ccc43)nc12 [Compound 5-41-iv] | 87.4 ± 1.43 % DMSO | 1.29 ± 1.06 % 4-107 | – |
| COc1cccc2c(NCc3ccccc3)nc(Cl)nc12 [Compound 3] | 71.88 ± 3.41 % DMSO | – | VPS4B ATPase (% DMSO) (VPS4B; [4]): 71.88 ± 3.41 % DMSO; GFP-CHMP4B (% 4-107) ([1]; screened at 1 µM, mean ± S.D., Supplemental Table 2, listed as 5-125): 3.86 ± 2.41 % 4-107; GFP-CHMP4B (% 4-107) [1, 5]: 3.86 ± 2.41 % 4-107 |
| COc1cccc2c(NCc3ccccc3)nc(NCc3cccc(OC(F)(F)F)c3)nc12 [Compound 16] | – | – | VPS4B ATPase (% DMSO) (VPS4B; [4]): 41.50 ± 2.98 % DMSO; VPS4B ATPase (% DMSO) (VPS4B; screened at 5 µM, mean ± S.D., Supplemental Table 2, listed as 7-07): 41.50 ± 2.98 % DMSO; GFP-CHMP4B (% 4-107) ([1]; screened at 1 µM, mean ± S.D., Supplemental Table 2, listed as 7-07): 7.52 ± 1.95 % 4-107; GFP-CHMP4B (% 4-107) [1, 5]: 7.52 ± 1.95 % 4-107 |
| COc1cccc2c(NCc3ccccc3)nc(NCc3cccc(C(F)(F)F)c3)nc12 [Compound 15] | 28.57 ± 1.13 % DMSO | 25.61 ± 20.09 % 4-107 | VPS4B ATPase (% DMSO) (VPS4B; [4]): 28.57 ± 1.13 % DMSO; GFP-CHMP4B (% 4-107) [1, 5]: 25.61 ± 20.09 % 4-107 |
| COc1cccc2c(NCCc3ccc(S(N)(=O)=O)cc3)nc(-n3ccc4ccc(C(=O)O)cc43)nc12 [Compound 5-43-iv] | 99.19 ± 4.43 % DMSO | 1.27 ± 0.69 % 4-107 | – |
| NCc1ccccc1 [Compound 2] | 55.31 ± 5.04 % DMSO | 6.69 ± 3.07 % 4-107 | VPS4B ATPase (% DMSO) (VPS4B; [4]): 55.31 ± 5.04 % DMSO; GFP-CHMP4B (% 4-107) [1, 5]: 6.69 ± 3.07 % 4-107 |

From publication PMC13095408, “DBeQ derivative targets vacuolar protein sorting 4 functions in cancer cells and suppresses tumor growth in mice” (The Journal of Pharmacology and Experimental Therapeutics, 2025)
